Data from patent publication US12691083B2, “Pharmaceutical composition for preventing or treating attention deficit/hyperactivity disorder, containing KDS2010 as active ingredient” (DANKOOK UNIVERSITY CHEONAN CAMPUS INDUSTRY ACADEMIC …, priority 2021, dated 2026).

Columns and labels:
Type in all cases: in vivo
[1] = system: Git1 gene-deficient hetero (+/−) mice; assay: Passive avoidance test (fear memory learning ability); details: Git1 hetero type (+/−) mice, KDS2010 orally 10 mg/kg per day
Experimental: The hippocampus, one of the regions that affects ADHD, is responsible for functions related to learning and memory. In order to evaluate the effect of ameliorating ADHD upon administration of KDS2010, KDS2010 was administered to Git1 gene-deficient hetero (+/−) mice, an animal model with ADHD, and a passive avoidance test that enables evaluation on a fear memory learning ability in relation to the function of the dentate gyrus in the hippocampus was conducted. The passive avoidance test was performed using a common passive avoidance test device which was a shuttle box divided into two rooms, one of which was equipped with a bright light bulb to create a bright environment that the laboratory animals dislike, while the other room was designed not to allow light to enter such that the laboratory animals may feel comfortable. […] Immediately thereafter, after 24 hours and after 48 hours, the latency time of entering a dark room without an electric shock is measured up to 90 seconds (retention tests 1, 2, and 3).
The KDS2010 was orally administered at a concentration of 10 mg/kg per day. The amount (mg) of each drug was calculated according to the weight (kg) of each mouse, followed by dissolution in 100 μL of drinking water. […] The daily amount of water consumed by adult mice older than 7 weeks was administered at a calculated dose of 10 ml/day. […]

[2] = system: Git1 hetero type (+/−) mice; assay: Open field test (hyperactivity, locomotor activity); details: Git1 hetero type (+/−) mice administered KDS2010; movement measured for 10 minutes; FIG. 4
Experimental: (§1) The KDS2010 was orally administered at a concentration of 10 mg/kg per day. The amount (mg) of each drug was calculated according to the weight (kg) of each mouse, followed by dissolution in 100 μL of drinking water. Oral administration was performed once a day. The daily amount of water consumed by adult mice older than 7 weeks was administered at a calculated dose of […]. The drug was administered 3 days prior to passive avoidance, and the drug administration was continued during the passive avoidance test. KDS2010 is an inhibitor against monoamine oxidase B (MAOB) and may reduce GABA levels that are increased in astrocytes of the hippocampus.
ADHD is diagnosed based on two main tendencies including a hyperactive type and an inattention type, but the two symptoms don't necessarily occur together. From this point of view, hyperactivity-related abilities should not be impaired in the course of treatment for inattention, which has been determined through an open field test that enables measurement of hyperactivity.
An open field test was performed to assess whether there is a behavioral improvement. […] The mice were placed in the center of an open field test cage (30×30×30 cm), and its movement was measured for 10 minutes. The measured videos were analyzed for locomotor activity through ANYmaze.

[3] = system: Git1 hetero type (+/−) mice; assay: Self-grooming test; details: Git1 hetero type (+/−) mice administered KDS2010; recorded for 10 minutes; compared with wild type (+/+); FIG. 5
Experimental: as §1
For a self-grooming test, mice were placed in a plastic cylinder with a diameter of 15 cm and a height of 35 cm. In the plastic cylinder, mice were habituated for about 20 minutes, and then self-grooming behavior was recorded for 10 minutes. The duration of the self-grooming behavior was checked through the recorded video, and if there was an interval of 5 seconds, it was measured as different self-grooming. The number of each different self-grooming behavior was expressed as each different self-grooming bout.

`C[C@H](NCc1ccc(-c2ccc(C(F)(F)F)cc2)cc1)C(N)=O` [KDS2010, (S)-2-(((4′-(trifluoromethyl)-[1,1′-biphenyl]-4-yl)methyl)amino)propenamide] was tested, and the “fear memory learning ability” value ([1]; from 3 days prior to and during test, compared with wild type (+/+), FIG. 2) was “recovery in the fear memory learning ability, similar to the wild type (+/+) mice”, the “entry time (time to enter the dark room), retention” value ([1]; retention trial, compared with wild type) was “entry time recovered closer to the wild type” and the effect on hyperactivity [2] was “no effect was derived on hyperactivity”. The self-grooming duration [3] was “decrease to a value similar to the wild type (+/+) mice”.
